Patent US8946142B2, “Beta-arrestin effectors and compositions and methods of use thereof” (Trevena, Inc., priority 2012, dated 2015)
Where a SMILES comes first, the peptide text is derived from it. [ ]: non-standard residue; d: D form. Ac6c = NC1(C(=O)O)CCCCC1; Ac5c = NC1(C(=O)O)CCCC1; Sar = CNCC(=O)O

Columns and labels:
Assay type in all cases: cell-based
human AT1R [1] = target: T1, human AT1R (Homo sapiens, UniProt P30556); experiment: IP1 accumulation assay (IP1 G-protein assay), human AT1R; settings: for Emax: read-out: Span (relative to hAngII)
T1 sequence (P30556 1-359): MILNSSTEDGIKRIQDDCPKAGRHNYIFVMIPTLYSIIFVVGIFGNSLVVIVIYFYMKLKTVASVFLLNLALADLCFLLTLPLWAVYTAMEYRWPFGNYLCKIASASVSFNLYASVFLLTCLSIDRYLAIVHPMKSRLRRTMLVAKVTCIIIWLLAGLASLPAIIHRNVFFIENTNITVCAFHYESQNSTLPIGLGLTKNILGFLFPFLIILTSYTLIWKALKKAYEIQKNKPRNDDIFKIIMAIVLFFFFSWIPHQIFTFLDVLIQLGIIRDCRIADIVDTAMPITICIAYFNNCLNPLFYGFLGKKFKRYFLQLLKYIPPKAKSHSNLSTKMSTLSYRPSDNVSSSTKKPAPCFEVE
Experimental: (§1) A secondary measure of G protein coupling efficacy was also performed. IP3 is generated by activation of phospholipase C by Gα-q. IP3 is degraded to IP1, which can be forced to accumulate in cells by blocking degradation with lithium chloride. Thus we measured accumulation of IP1 to determine ligand efficacy for G protein activation.
(§2) IP1 accumulation generated by human and rat angiotensin 2 type 1 receptor (human AT1R and rat AT1aR, respectively) was measured with IP-One Tb kits purchased from Cisbio and used per the manufacturer's instructions. Clonal stably transfected cell lines expressing human AT1TR or rat AT1aR were used for all experiments.
(§3) For assays, 4,000-8,000 cells were seeded per well in 384-well small-volume microplates “HiBase” small-volume plate in volumes of 20 uL and allowed to grow overnight at 37° C. in 5% CO2. Cell growth media was then replaced with stimulation buffer supplied by Cisbio containing 50 mM lithium chloride. […] For agonist detection, peptides were then further diluted in stimulation buffer to add peptide to the cells to reach final concentrations ranging from 100 uM to 1 pM. Following addition of peptides, cells were incubated at 37° C. in 5% CO2 for 30 minutes and then lysed with 4 uL of pre-mixed HTRF IP-One reagents diluted per manufacturer's instructions (Cisbio). Microplates were incubated for 60-90 minutes at room temperature and then time-resolved fluorescence intensities were measured using a PHERAstar Plus microplate reader from BMG Labtech. IP1 accumulation was measured as change in ratio of time-resolved fluorescent intensities measured at 665 nm and 620 nm.

rat AT1aR [2] = target: T2, rat AT1aR (Rattus norvegicus, UniProt P25095); experiment: IP1 accumulation assay (IP1 G-protein assay), rat AT1aR; settings: for Emax: read-out: Span (relative to hAngII)
T2 sequence (P25095 1-359): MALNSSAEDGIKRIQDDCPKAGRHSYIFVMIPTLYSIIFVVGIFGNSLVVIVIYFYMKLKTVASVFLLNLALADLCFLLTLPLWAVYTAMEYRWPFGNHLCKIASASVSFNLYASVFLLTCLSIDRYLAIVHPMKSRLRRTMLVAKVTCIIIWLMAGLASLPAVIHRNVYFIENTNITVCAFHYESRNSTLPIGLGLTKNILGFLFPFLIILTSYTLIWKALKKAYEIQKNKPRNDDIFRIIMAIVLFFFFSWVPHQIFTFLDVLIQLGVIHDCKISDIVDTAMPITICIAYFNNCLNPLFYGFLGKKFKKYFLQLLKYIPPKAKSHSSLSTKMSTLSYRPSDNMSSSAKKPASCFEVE
Experimental: as §1, §2, §3

human AT1R [3] = target: T1, human AT1R; experiment: beta-arrestin2 recruitment assay (PathHunter), human AT1R; settings: for Emax: 1 h, read-out: Span (relative to hAngII)
Procedure, shortened: (§4)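 PathHunter enzyme-complementation assay in HEK293 cells stably expressing ProLink-tagged human AT1R or rat AT1aR; peptides (final 100 μM–1 pM) in HBSS/20 mM HEPES for 60 min at 37 °C. Detection reagent 60 min at room temperature; β-arrestin-2 recruitment read as relative luminescence.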

rat AT1aR [4] = target: T2, rat AT1aR; experiment: beta-arrestin2 recruitment assay (PathHunter), rat AT1aR; settings: for Emax: 1 h, read-out: Span (relative to hAngII)
Procedure, shortened: as §4

Structure (SMILES)	EC50 (nM) (human AT1R [1])	pEC50 (human AT1R [1])	EC50 (rat AT1aR [2]; read-out: EC50)	Emax (rat AT1aR [2])	EC50 (rat AT1aR [2]; read-out: pEC50 (converted))	Emax (human AT1R [3])	EC50 (human AT1R [3]; read-out: EC50)	EC50 (human AT1R [3]; read-out: pEC50 (converted))	Emax (rat AT1aR [4])	EC50 (rat AT1aR [4]; read-out: EC50)	EC50 (rat AT1aR [4]; read-out: pEC50 (converted))	EC50 (human AT1R [1]; read-out: EC50)	EC50 (human AT1R [1]; read-out: pEC50 (converted))	Emax (human AT1R [1])
CC[C@H](C)[C@@H](C(=O)N[C@@H](Cc1c[nH]cn1)C(=O)N1CCC[C@H]1C(=O)N[C@@H](C)C(=O)O)N(C)C(=O)[C@H](Cc1ccc(O)cc1)NC(=O)[C@@H](NC(=O)[C@H](CCCNC(=N)N)NC(=O)CNC)C(C)C [SEQ ID NO: 58, Sar-Arg-Val-Tyr-NMeIle-His-Pro-Ala]	Inactive	Inactive	> 0.6 nM	< 104%	> 0.631 nM	< 101%	> 3.2 nM	> 3.16 nM	< 105%	> 3.2 nM	> 3.16 nM	–	–	–
CNCC(=O)N[C@@H](CCCNC(=N)N)C(=O)N[C@H](C(=O)N[C@@H](Cc1ccc(O)cc1)C(=O)NC1(C(=O)N[C@@H](Cc2c[nH]cn2)C(=O)N2CCC[C@H]2C(=O)N[C@H](C(=O)O)[C@@H](C)O)CCCC1)C(C)C [SEQ ID NO: 21, Sar-Arg-Val-Tyr-cyPen-His-Pro-Thr] (H-[Sar]RVY[Ac5c]HPT-OH)	–	–	> 0.6 nM	< 104%	> 0.631 nM	< 101%	> 3.2 nM	> 3.16 nM	< 105%	> 3.2 nM	> 3.16 nM	> 1.3 nM	> 0.631 nM	–
CNCC(=O)N[C@@H](CCCNC(=N)N)C(=O)N[C@H](C(=O)N[C@@H](Cc1ccc(O)cc1)C(=O)NC1(C(=O)N[C@@H](Cc2c[nH]cn2)C(=O)N2CCC[C@H]2C(=O)N[C@H](C(=O)O)C(C)C)CCCC1)C(C)C [SEQ ID NO: 20, Sar-Arg-Val-Tyr-cyPen-His-Pro-Val] (H-[Sar]RVY[Ac5c]HPV-OH)	–	–	> 0.6 nM	< 104%	> 0.631 nM	< 101%	> 3.2 nM	> 3.16 nM	< 105%	> 3.2 nM	> 3.16 nM	> 1.3 nM	> 0.631 nM	< 103%
CNCC(=O)N[C@@H](CCCNC(=N)N)C(=O)N[C@H](C(=O)N[C@@H](Cc1ccc(O)cc1)C(=O)NC1(C(=O)N[C@@H](Cc2c[nH]cn2)C(=O)N2CCC[C@H]2C(=O)N[C@@H](CO)C(=O)O)CCCC1)C(C)C [SEQ ID NO: 22, Sar-Arg-Val-Tyr-cyPen-His-Pro-Ser] (H-[Sar]RVY[Ac5c]HPS-OH)	–	–	> 0.6 nM	< 104%	> 0.631 nM	< 101%	> 3.2 nM	> 3.16 nM	< 105%	> 3.2 nM	> 3.16 nM	> 1.3 nM	> 0.631 nM	–
CC[C@H](C)[C@H](NC(=O)[C@@H]1CCCN1C(=O)[C@H](Cc1c[nH]cn1)NC(=O)C1(NC(=O)[C@H](Cc2ccc(O)cc2)NC(=O)[C@@H](NC(=O)[C@H](CCCNC(=N)N)NC(=O)CNC)C(C)C)CCCCC1)C(=O)O [SEQ ID NO: 11, Sar-Arg-Val-Tyr-cyHex-His-Pro-Ile] (H-[Sar]RVY[Ac6c]HPI-OH)	–	–	> 0.6 nM	–	> 0.631 nM	< 101%	> 3.2 nM	> 3.16 nM	< 105%	> 3.2 nM	> 3.16 nM	> 1.3 nM	> 0.631 nM	< 103%
CNCC(=O)N[C@@H](CCCNC(=N)N)C(=O)N[C@H](C(=O)N[C@@H](Cc1ccc(O)cc1)C(=O)NC1(C(=O)N[C@@H](Cc2c[nH]cn2)C(=O)N2CCC[C@H]2C(=O)N[C@@H](Cc2ccccc2)C(=O)O)CCCCC1)C(C)C [SEQ ID NO: 17, Sar-Arg-Val-Tyr-cyHex-His-Pro-Phe] (H-[Sar]RVY[Ac6c]HPF-OH; N-terminus and C-terminus assumed)	–	–	> 0.6 nM	> 104%	–	> 101%	> 3.2 nM	–	< 105%	3.2 nM	–	< 1.3 nM	> 0.631 nM	< 103%
CNCC(=O)N[C@@H](CCCNC(=N)N)C(=O)N[C@H](C(=O)N[C@@H](Cc1ccc(O)cc1)C(=O)N1CCC[C@H]1C(=O)N[C@@H](Cc1c[nH]cn1)C(=O)N1CCC[C@H]1C(=O)N[C@@H](Cc1ccccc1)C(=O)O)C(C)C [SEQ ID NO: 10, Sar-Arg-Val-Tyr-Pro-His-Pro-Phe] (H-[Sar]RVYPHPF-OH; N-terminus and C-terminus assumed)	–	–	–	< 104%	–	< 101%	–	–	> 105%	–	–	–	–	< 103%
CC[C@H](C)[C@H](NC(=O)[C@@H]1CCCN1C(=O)[C@H](Cc1c[nH]cn1)NC(=O)C1(NC(=O)[C@H](Cc2ccc(O)cc2)NC(=O)[C@@H](NC(=O)[C@H](CCCN=C(N)N)NC(=O)CNC)C(C)C)CCCC1)C(=O)O [SEQ ID NO: 18, Sar-Arg-Val-Tyr-cyPen-His-Pro-Ile] (H-[Sar]RVY[Ac5c]HPI-OH)	–	–	> 0.6 nM	–	> 0.631 nM	–	> 3.2 nM	> 3.16 nM	–	> 3.2 nM	> 3.16 nM	> 1.3 nM	> 0.631 nM	–
CNCC(=O)N[C@@H](CCCNC(=N)N)C(=O)N[C@H](C(=O)N[C@@H](Cc1ccc(O)cc1)C(=O)N1CCC[C@H]1C(=O)N[C@@H](Cc1c[nH]cn1)C(=O)N1CCC[C@H]1C(=O)N[C@@H](CCSC)C(=O)O)C(C)C [SEQ ID NO: 9, Sar-Arg-Val-Tyr-Pro-His-Pro-Met] (H-[Sar]RVYPHPM-OH; N-terminus and C-terminus assumed)	–	–	–	< 104%	–	< 101%	–	–	< 105%	–	–	–	–	< 103%
CNCC(=O)N[C@@H](CCCNC(=N)N)C(=O)N[C@H](C(=O)N[C@@H](Cc1ccc(O)cc1)C(=O)NC1(C(=O)N[C@@H](Cc2c[nH]cn2)C(=O)N2CCC[C@H]2C(=O)N[C@@H](Cc2ccc(O)cc2)C(=O)O)CCCCC1)C(C)C [SEQ ID NO: 55, Sar-Arg-Val-Tyr-cyHex-His-Pro-Tyr] (H-[Sar]RVY[Ac6c]HPY-OH)	–	–	> 0.6 nM	< 104%	> 0.631 nM	< 101%	> 3.2 nM	> 3.16 nM	< 105%	> 3.2 nM	> 3.16 nM	> 1.3 nM	> 0.631 nM	< 103%
CC[C@H](C)[C@H](NC(=O)[C@@H]1CCCN1C(=O)[C@H](Cc1c[nH]cn1)NC(=O)C1(NC(=O)[C@H](Cc2ccc(O)cc2)NC(=O)[C@@H](NC(=O)[C@H](CCCNC(=N)N)NC(=O)CNC)C(C)C)CCCC1)C(=O)O [SEQ ID NO: 18, Sar-Arg-Val-Tyr-cyPen-His-Pro-Ile] (H-[Sar]RVY[Ac5c]HPI-OH)	–	–	–	< 104%	–	< 101%	–	–	< 105%	–	–	–	–	< 103%
CNCC(=O)N[C@@H](CCCNC(=N)N)C(=O)N[C@H](C(=O)N[C@@H](Cc1ccc(O)cc1)C(=O)NC1(C(=O)N[C@@H](Cc2c[nH]cn2)C(=O)N2CCC[C@H]2C(=O)N[C@@H](CC(C)C)C(=O)O)CCCCC1)C(C)C [SEQ ID NO: 12, Sar-Arg-Val-Tyr-cyHex-His-Pro-Leu] (H-[Sar]RVY[Ac6c]HPL-OH)	–	–	> 0.6 nM	< 104%	> 0.631 nM	< 101%	> 3.2 nM	> 3.16 nM	< 105%	> 3.2 nM	> 3.16 nM	> 1.3 nM	> 0.631 nM	< 103%
CNCC(=O)N[C@@H](CCCNC(=N)N)C(=O)N[C@H](C(=O)N[C@@H](Cc1ccc(O)cc1)C(=O)NC1(C(=O)N[C@@H](Cc2c[nH]cn2)C(=O)N2CCC[C@H]2C(=O)N[C@H](C)C(=O)O)CCCC1)C(C)C [SEQ ID NO: 59, Sar-Arg-Val-Tyr-cyPen-His-Pro-D-Ala]	Inactive	Inactive	> 0.6 nM	< 104%	> 0.631 nM	< 101%	> 3.2 nM	> 3.16 nM	< 105%	> 3.2 nM	> 3.16 nM	–	–	–
